From ChEMBL document CHEMBL1141598, “Optimization of 1H-tetrazole-1-alkanenitriles as potent orally bioavailable growth hormone secretagogues” (Bioorg Med Chem Lett, 2008)

Assays:
[1] = biological target: T1, Growth hormone secretagogue receptor type 1 (Homo sapiens, UniProt Q92847); assay: Agonist activity at human GHS receptor expressed in H4 glioma cells; assay type: cell-based
[2] = biological target: T1, Growth hormone secretagogue receptor type 1; assay: Agonist activity at human GHS receptor expressed in H4 glioma cells assessed as intracellular calcium concentration by FLIPR assay; assay type: functional, cell-based
[3] = test system: Rattus norvegicus; assay: Increase in plasma GH level in acute anesthetized iv dosed Wistar rat model; assay type: functional
[4] = biological target: T2, Cytochrome P450 1A2 (Homo sapiens, UniProt P05177); assay: Inhibition of CYP1A2; assay type: ADME
T2 sequence (P05177 whole entry): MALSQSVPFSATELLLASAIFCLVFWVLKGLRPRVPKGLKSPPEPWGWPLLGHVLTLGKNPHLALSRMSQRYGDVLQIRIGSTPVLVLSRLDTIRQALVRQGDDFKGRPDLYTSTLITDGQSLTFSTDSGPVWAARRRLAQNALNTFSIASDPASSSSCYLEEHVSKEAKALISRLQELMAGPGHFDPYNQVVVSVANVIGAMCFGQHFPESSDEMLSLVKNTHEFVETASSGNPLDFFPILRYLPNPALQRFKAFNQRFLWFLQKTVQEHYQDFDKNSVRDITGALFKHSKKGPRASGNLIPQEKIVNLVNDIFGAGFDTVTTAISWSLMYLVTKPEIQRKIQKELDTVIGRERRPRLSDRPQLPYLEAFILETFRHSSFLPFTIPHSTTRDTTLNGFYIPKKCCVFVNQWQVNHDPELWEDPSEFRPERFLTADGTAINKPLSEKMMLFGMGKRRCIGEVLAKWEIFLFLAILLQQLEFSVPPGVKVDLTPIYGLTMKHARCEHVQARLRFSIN

[5] = biological target: Cytochrome P450 2C9 (Homo sapiens, UniProt P11712); assay: Inhibition of CYP2C9; assay type: ADME
[6] = biological target: Cytochrome P450 2C19 (Homo sapiens, UniProt P33261); assay: Inhibition of CYP2C19; assay type: ADME
[7] = biological target: Cytochrome P450 2D6 (Homo sapiens, UniProt P10635); assay: Inhibition of CYP2D6; assay type: ADME
[8] = biological target: T3, Cytochrome P450 3A4 (Homo sapiens, UniProt P08684); assay: Inhibition of CYP3A4 using 7-benzyloxy-4-trifluoromethylcoumarin as a substrate; assay type: ADME
[9] = biological target: T3, Cytochrome P450 3A4; assay: Inhibition of CYP3A4 using 7-benzyloxyresorufin as a substrate; assay type: ADME
[10] = Oral bioavailability in rat; assay type: ADME, organism-based; details: in vivo
[11] = Oral bioavailability in dog; assay type: ADME, organism-based, Canis lupus familiaris; details: in vivo

T3 sequence (P08684 whole entry): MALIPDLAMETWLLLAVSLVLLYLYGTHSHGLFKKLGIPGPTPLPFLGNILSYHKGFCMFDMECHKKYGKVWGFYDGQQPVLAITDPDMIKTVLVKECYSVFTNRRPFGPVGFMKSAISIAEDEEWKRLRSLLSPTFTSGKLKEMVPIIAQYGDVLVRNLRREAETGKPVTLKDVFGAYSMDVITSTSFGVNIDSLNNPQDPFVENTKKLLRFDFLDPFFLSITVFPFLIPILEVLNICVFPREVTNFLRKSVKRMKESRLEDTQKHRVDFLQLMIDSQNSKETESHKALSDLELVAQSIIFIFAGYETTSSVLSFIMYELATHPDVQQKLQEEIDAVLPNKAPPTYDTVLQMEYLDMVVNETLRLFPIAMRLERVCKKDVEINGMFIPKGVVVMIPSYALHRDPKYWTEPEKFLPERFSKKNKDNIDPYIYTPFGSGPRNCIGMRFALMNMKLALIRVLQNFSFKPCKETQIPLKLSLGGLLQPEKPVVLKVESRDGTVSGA
T1 sequence (Q92847 whole entry): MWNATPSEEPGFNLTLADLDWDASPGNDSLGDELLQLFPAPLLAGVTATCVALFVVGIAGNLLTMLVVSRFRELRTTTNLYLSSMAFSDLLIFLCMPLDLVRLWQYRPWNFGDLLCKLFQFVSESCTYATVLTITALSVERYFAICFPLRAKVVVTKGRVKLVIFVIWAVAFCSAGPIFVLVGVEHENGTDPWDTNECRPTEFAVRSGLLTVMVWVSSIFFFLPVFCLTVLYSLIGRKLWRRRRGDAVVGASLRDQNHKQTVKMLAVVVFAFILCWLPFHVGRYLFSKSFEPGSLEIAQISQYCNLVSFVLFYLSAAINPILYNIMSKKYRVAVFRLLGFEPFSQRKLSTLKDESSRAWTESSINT
Sequence of Cytochrome P450 2D6 (P10635 whole entry): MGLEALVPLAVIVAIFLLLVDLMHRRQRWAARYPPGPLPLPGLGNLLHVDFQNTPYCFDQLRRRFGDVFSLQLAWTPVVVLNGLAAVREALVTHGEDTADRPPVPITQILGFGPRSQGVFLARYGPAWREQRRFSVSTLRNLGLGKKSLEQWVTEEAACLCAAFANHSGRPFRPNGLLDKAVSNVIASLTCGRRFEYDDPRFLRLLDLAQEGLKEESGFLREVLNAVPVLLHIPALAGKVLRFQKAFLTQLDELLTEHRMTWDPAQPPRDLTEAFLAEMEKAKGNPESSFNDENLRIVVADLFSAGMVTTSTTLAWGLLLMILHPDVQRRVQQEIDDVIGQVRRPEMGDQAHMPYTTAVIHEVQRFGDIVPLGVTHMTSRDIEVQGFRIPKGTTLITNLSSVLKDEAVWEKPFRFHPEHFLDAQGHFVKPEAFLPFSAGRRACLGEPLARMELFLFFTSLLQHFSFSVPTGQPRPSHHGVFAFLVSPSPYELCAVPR
Sequence of Cytochrome P450 2C19 (P33261 whole entry): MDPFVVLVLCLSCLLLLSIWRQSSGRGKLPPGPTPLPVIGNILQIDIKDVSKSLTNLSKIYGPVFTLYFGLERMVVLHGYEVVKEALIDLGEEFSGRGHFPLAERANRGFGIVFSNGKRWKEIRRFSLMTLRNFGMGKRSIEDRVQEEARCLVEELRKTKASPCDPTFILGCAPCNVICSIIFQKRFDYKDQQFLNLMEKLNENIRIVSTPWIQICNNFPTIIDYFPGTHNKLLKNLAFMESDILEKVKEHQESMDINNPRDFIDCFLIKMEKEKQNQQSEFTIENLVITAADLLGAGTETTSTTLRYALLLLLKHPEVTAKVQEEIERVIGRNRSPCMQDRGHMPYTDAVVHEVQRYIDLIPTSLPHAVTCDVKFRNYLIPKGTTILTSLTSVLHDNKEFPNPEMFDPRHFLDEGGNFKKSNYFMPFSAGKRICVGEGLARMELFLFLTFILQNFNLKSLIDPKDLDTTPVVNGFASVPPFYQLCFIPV
Sequence of Cytochrome P450 2C9 (P11712 whole entry): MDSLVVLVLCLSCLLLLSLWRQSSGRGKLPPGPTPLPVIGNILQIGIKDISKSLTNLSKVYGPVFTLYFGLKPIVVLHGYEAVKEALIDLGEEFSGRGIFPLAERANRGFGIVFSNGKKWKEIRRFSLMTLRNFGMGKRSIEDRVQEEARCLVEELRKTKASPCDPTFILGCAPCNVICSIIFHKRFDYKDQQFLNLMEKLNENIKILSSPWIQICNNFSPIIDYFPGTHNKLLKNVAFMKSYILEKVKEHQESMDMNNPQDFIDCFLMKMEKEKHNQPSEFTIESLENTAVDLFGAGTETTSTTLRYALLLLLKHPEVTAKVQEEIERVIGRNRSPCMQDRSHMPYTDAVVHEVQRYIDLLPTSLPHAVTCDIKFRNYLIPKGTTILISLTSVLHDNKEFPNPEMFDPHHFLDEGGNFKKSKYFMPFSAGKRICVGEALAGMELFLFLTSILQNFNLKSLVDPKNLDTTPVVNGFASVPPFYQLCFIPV

In the case of CC(C)(N)C(=O)N[C@H](COCc1ccccc1)c1nnnn1[C@@H](CC#N)COc1ccccc1O, the Ki [1] is reported as 240 nM and the EC50 [2] is reported as 23 nM.

Work on CC(C)(N)C(=O)N[C@H](COCc1ccccc1)c1nnn(CCC(C#N)c2ccccc2)n1 (mixture of isomers) yielded a Ki [1] of over 5000 nM and an EC50 [2] of 302 nM.

CC(C)(N)C(=O)N[C@H](COCc1ccccc1)c1nnn(C(CC#N)CCc2ccccc2)n1 (single isomer, unassigned; diastereomer 2) gave a Ki [1] of 3940 nM and an EC50 [2] of 244 nM.

CC(C)(N)C(=O)N[C@H](COCc1ccccc1)c1nnnn1C(/C=C/c1ccccc1)CC#N (single isomer, unassigned; diastereomer 1) showed a Ki [1] of 12 nM, an EC50 [2] of 0.5 nM and an ED250 [3] of over 2 µmol/kg.

In the case of CC(C)(N)C(=O)N[C@H](COCc1ccccc1)c1nnnn1C(CC#N)CCc1ccccc1 (single isomer, unassigned; diastereomer 2), the Ki [1] is reported as 1380 nM and the EC50 [2] is reported as 139 nM.

With CC(C)(N)C(=O)N[C@H](COCc1ccccc1)c1nnnn1[C@@H](CC#N)COc1ccccc1 the Ki [1] was 197 nM and the EC50 [2] was 19 nM.

For CC(C)(N)C(=O)N[C@H](COCc1ccccc1)c1nnnn1CCC#N, the ED250 [3] was 4.8 µmol/kg.

With CC(C)(N)C(=O)N[C@H](COCc1ccccc1)c1nnn(C(CC#N)CCc2ccccc2)n1 (single isomer, unassigned; diastereomer 1) the Ki [1] was 2560 nM and the EC50 [2] was 150 nM.

CC(C)(N)C(=O)N[C@H](COCc1ccccc1)c1nnn(C(/C=C/c2ccccc2)CC#N)n1 (single isomer, unassigned; diastereomer 1) gave a Ki [1] of 453 nM and an EC50 [2] of 19 nM.

CC(C)(N)C(=O)N[C@H](COCc1ccccc1)c1nnnn1C(/C=C/c1ccccc1)CC#N (single isomer, unassigned; diastereomer 2) showed a Ki [1] of 737 nM and an EC50 [2] of 62 nM.

For CC(C)(N)C(=O)N[C@H](COCc1ccccc1)c1nnnn1C(CC#N)COc1ccccc1F (single isomer, unassigned; diastereomer 1), the Ki [1] was 18 nM and the EC50 [2] was 0.6 nM.

Work on CC(C)(N)C(=O)N[C@H](COCc1ccccc1)c1nnnn1C(CC#N)CCc1ccccc1 (single isomer, unassigned; diastereomer 1) yielded a Ki [1] of 63 nM, an EC50 [2] of 0.8 nM and an ED250 [3] of 1.7 µmol/kg.

With CC(C)(N)C(=O)N[C@H](COCc1ccccc1)c1nnnn1[C@H](CC#N)COc1ccccc1O the Ki [1] was 5.7 nM, the EC50 [2] was 0.3 nM and the ED250 [3] was under 0.15 µmol/kg. It also gave an IC50 [4] of over 66000 nM, an IC50 [5] of over 66000 nM and an IC50 [6] of 42000 nM. For the same compound, the IC50 [7] was 5100 nM, the IC50 [8] was 9800 nM and the IC50 [9] was 5500 nM.

CC(C)(N)C(=O)N[C@H](COCc1ccccc1)c1nnn(CC(C#N)Cc2ccccc2)n1 (mixture of isomers) gave a Ki [1] of over 5000 nM and an EC50 [2] of 2470 nM.

CC(C)(N)C(=O)N[C@H](COCc1ccccc1)c1nnn(C(/C=C/c2ccccc2)CC#N)n1 (single isomer, unassigned; diastereomer 2) showed a Ki [1] of 2510 nM and an EC50 [2] of 202 nM.

CC(C)(N)C(=O)N[C@H](COCc1ccccc1)c1nnnn1CC(C#N)Cc1ccccc1 (mixture of isomers) showed a Ki [1] of 298 nM and an EC50 [2] of 22 nM.

In the case of CC(C)(N)C(=O)N[C@H](COCc1ccccc1)c1nnnn1[C@@H](CC#N)COc1ccccn1, the Ki [1] is reported as 503 nM and the EC50 [2] is reported as 19 nM.

With CC(C)(N)C(=O)N[C@H](COCc1ccccc1)c1nnnn1C(CC#N)COc1ccccc1F (single isomer, unassigned; diastereomer 2) the Ki [1] was 696 nM and the EC50 [2] was 64 nM.

Compound CC(C)(N)C(=O)N[C@H](COCc1ccccc1)c1nnnn1[C@H](CC#N)COc1ccccn1 has a Ki [1] of 40 nM, an EC50 [2] of 0.4 nM and an ED250 [3] of 0.33 µmol/kg. It also gave a bioavailability [10] of 24%, a bioavailability [11] of 55% and an IC50 [4] of over 100000 nM. The IC50 [5] was over 100000 nM, the IC50 [6] was 33000 nM and the IC50 [7] was over 100000 nM. For the same compound, the IC50 [8] was 59000 nM and the IC50 [9] was 11000 nM.

For CC(C)(N)C(=O)N[C@H](COCc1ccccc1)c1nnnn1[C@H](CC#N)COc1ccccc1, the Ki [1] was 7.5 nM, the EC50 [2] was 0.4 nM and the ED250 [3] was 0.87 µmol/kg.

In the case of CC(C)(N)C(=O)N[C@H](COCc1ccccc1)c1nnnn1CCC(C#N)c1ccccc1 (mixture of isomers), the Ki [1] is reported as 611 nM and the EC50 [2] is reported as 27 nM.
